Assay results published in patent publication US10294202B2, “Pyrrolidinones as herbicides” (FMC Corporation, priority 2013, dated 2019).

How the values were obtained:
corn = assay: Test C pre-/postemergence herbicide test; format: in vivo, Zea mays; settings: Preemergence; for Plant response rating, Corn: 125 g ai/ha; for Plant response rating (scale of 0 to 100), Corn: 250 g ai/ha
Source text: (§1) Seeds of plant species selected from blackgrass (Alopecurus myosuroides), ryegrass, Italian (Italian ryegrass, Lolium multiflorum), wheat (winter wheat, Triticum aestivum), galium (catchweed bedstraw, Galium aparine), corn (Zea mays), crabgrass, large (large crabgrass, Digitaria sanguinalis), foxtail, giant (giant foxtail, Setaria faberii), johnsongrass (Sorghum halepense), lambsquarters (Chenopodium album), morningglory (Ipomoea coccinea), nutsedge, yellow (yellow nutsedge, Cyperus esculentus), pigweed (Amaranthus retroflexus), ragweed (common ragweed, Ambrosia elatior), soybean (Glycine max), barnyardgrass (Echinochloa crus-galli), oilseed rape (Brassica napus), waterhemp (common waterhemp, Amaranthus rudis), kochia (Kochia scoparia), oat, wild (wild oat, Avena fatua), surinam grass (Brachiaria decumbens), foxtail, green (green foxtail, Setaria viridis), goosegrass (Eleusine indica), bromegrass, downy (downy bromegrass, Bromus tectorum), nightshade (eastern black nightshade, Solanum ptycanthum), cocklebur (common cocklebur, Xanthium strumarium), cupgrass, woolly (woolly cupgrass, Eriochloa villosa), bermudagrass (Cynodon dactylon), sunflower, (common oilseed sunflower, Helianthus annuus), Russian thistle (Salsola kali) and velvetleaf (Abutilon theophrasti) were planted into a blend of loam soil and sand and treated preemergence with test chemicals formulated in a non-phytotoxic solvent mixture which included a surfactant. At the same time, plants selected from these crop and weed species and also barley (winter barley, Hordeum vulgare), […]), chickweed (common chickweed, Stellaria media), deadnettle (henbit deadnettle, Lamium amplexicaule), and canarygrass (littleseed canarygrass, Phalaris minor) were planted in pots containing Redi-Earth® planting medium (Scotts Company, 14111 Scottslawn Road, Marysville, Ohio 43041) comprising spaghnum peat moss, vermiculite, wetting agent and starter nutrients and treated with postemergence applications of test chemicals formulated in the same manner. Plants ranged in height from 2 to 18 cm (1- to 4-leaf stage) for postemergence treatments. Treated plants and controls were maintained in a greenhouse for 13 to 15 days, after which time all species were compared to controls and visually evaluated. Plant response ratings, summarized in Table C, are based on a scale of 0 to 100 where 0 is no effect and 100 is complete control. A dash (-) response means no test result.

galium = assay: Test C pre-/postemergence herbicide test; format: in vivo, Galium aparine; settings: Preemergence; for Plant response rating, Galium: 125 g ai/ha; for Plant response rating (scale of 0 to 100), Galium: 250 g ai/ha
Outline: (§2)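 Pre-emergence: seeds sown in loam/sand blend and treated with compound in surfactant-containing solvent. Post-emergence: plants at 2–18 cm (1- to 4-leaf stage) in peat-based medium sprayed with the same formulation. Visual rating versus controls after 13–15 days in greenhouse, scale 0 (no effect) to 100 (complete control).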

wheat = assay: Test A pre-/postemergence herbicide test; format: in vivo, Triticum aestivum; settings: Postemergence
Outline: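 Seeds in loam–sand blend received preemergence directed soil spray; separately, plants 2–10 cm at one- to two-leaf stage received postemergence spray, both with test chemicals in non-phytotoxic solvent with surfactant. After ~10 days in greenhouse, injury rated visually against untreated controls, 0 (no effect) to 100 (complete control).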

blackgrass = assay: Test C pre-/postemergence herbicide test; format: in vivo, Alopecurus myosuroides; settings: Preemergence; for Plant response rating (scale of 0 to 100), Blackgrass: 250 g ai/ha
Source text: as §1

johnsongrass = assay: Test C pre-/postemergence herbicide test; format: in vivo, Sorghum halepense; settings: Preemergence; for Plant response rating, Johnsongrass: 125 g ai/ha; for Plant response rating (scale of 0 to 100), Johnsongrass: 250 g ai/ha
Source text: as §1

waterhemp = assay: Test C pre-/postemergence herbicide test; format: in vivo, Amaranthus rudis; settings: Preemergence; for Plant response rating, Waterhemp: 125 g ai/ha
Outline: as §2

ragweed = assay: Test C pre-/postemergence herbicide test; format: in vivo, Ambrosia elatior; settings: Preemergence; for Plant response rating, Ragweed: 125 g ai/ha
Outline: as §2

oilseed rape = assay: Test C pre-/postemergence herbicide test; format: in vivo, Brassica napus; settings: Preemergence; for Plant response rating, Oilseed Rape: 125 g ai/ha; for Plant response rating (scale of 0 to 100), Oilseed Rape: 250 g ai/ha
Outline: as §2

ryegrass, Italian = assay: Test C pre-/postemergence herbicide test; format: in vivo, Lolium multiflorum; settings: Preemergence; for Plant response rating, Ryegrass, Italian: 125 g ai/ha
Outline: as §2

crabgrass, large = assay: Test C pre-/postemergence herbicide test; format: in vivo, Digitaria sanguinalis; settings: Preemergence; for Plant response rating, Crabgrass, Large: 125 g ai/ha; for Plant response rating (scale of 0 to 100), Crabgrass, Large: 250 g ai/ha
Source text: as §1

soybean = assay: Test C pre-/postemergence herbicide test; format: in vivo, Glycine max; settings: Preemergence; for Plant response rating, Soybean: 125 g ai/ha
Source text: as §1

[1] = 31 g ai/ha, scale 0 to 100, 0 is no effect and 100 is complete control
[2] = 62 g ai/ha, scale 0 to 100 (0 no effect, 100 complete control)
[3] = scale 0 to 100 (0 no effect, 100 complete control)

O=C1NCC(c2ccc(C(F)(F)F)cc2)C1C(=O)Nc1ccccc1F (stereo not shown) [Compound 231]
Corn plant response rating (corn; [1]): 0
Corn plant response rating (corn; [2]): 5
Plant response rating, Corn (corn; [3]): 70
Plant response rating (scale of 0 to 100), Corn (corn): 85
Galium plant response rating (galium; [1]): 0
Galium plant response rating (galium; [2]): 85
Plant response rating, Galium (galium; [3]): 90
Plant response rating (scale of 0 to 100), Galium (galium): 90
Plant response rating, Wheat (wheat; 125 g ai/ha, 0 to 100 scale, 0 is no effect, 100 is complete control): 20
Wheat plant response rating (0 to 100 scale, 0 is no effect, 100 is complete control) (wheat; 500 g ai/ha): 30
Blackgrass plant response rating (blackgrass; [1]): 50
Plant response rating, Blackgrass (blackgrass; 62 g ai/ha, scale 0 to 100): 85
Plant response rating, Blackgrass (blackgrass; 125 g ai/ha, scale 0 to 100 (0 no effect, 100 complete control)): 85
Plant response rating (scale of 0 to 100), Blackgrass (blackgrass): 90
Johnsongrass plant response rating (johnsongrass; [1]): 0
Johnsongrass plant response rating (johnsongrass; [2]): 10
Plant response rating, Johnsongrass (johnsongrass; [3]): 45
Plant response rating (scale of 0 to 100), Johnsongrass (johnsongrass): 60
Waterhemp plant response rating (waterhemp; [1]): 75
Waterhemp plant response rating (waterhemp; [2]): 85
Plant response rating, Waterhemp (waterhemp; [3]): 100
Plant response rating (scale of 0 to 100), Waterhemp (waterhemp; 250 g ai/ha): 95
Ragweed plant response rating (ragweed; [1]): 80
Ragweed plant response rating (ragweed; [2]): 100
Plant response rating, Ragweed (ragweed; [3]): 80
Plant response rating (scale of 0 to 100), Ragweed (ragweed; 250 g ai/ha): 85
Oilseed Rape plant response rating (oilseed rape; [1]): 0
Oilseed Rape plant response rating (oilseed rape; [2]): 55
Plant response rating, Oilseed Rape (oilseed rape; [3]): 85
Plant response rating (scale of 0 to 100), Oilseed Rape (oilseed rape): 90
Ryegrass, Italian plant response rating (ryegrass, Italian; [1]): 0
Ryegrass, Italian plant response rating (ryegrass, Italian; [2]): 10
Plant response rating, Ryegrass, Italian (ryegrass, Italian; [3]): 15
Plant response rating (scale of 0 to 100), Ryegrass, Italian (ryegrass, Italian; 250 g ai/ha): 15
Crabgrass, Large plant response rating (crabgrass, large; [1]): 90
Crabgrass, Large plant response rating (crabgrass, large; [2]): 95
Plant response rating, Crabgrass, Large (crabgrass, large; [3]): 100
Plant response rating (scale of 0 to 100), Crabgrass, Large (crabgrass, large): 100
Soybean plant response rating (soybean; [1]): 0
Soybean plant response rating (soybean; [2]): 0
Plant response rating, Soybean (soybean; [3]): 0
Plant response rating (scale of 0 to 100), Soybean (soybean; 250 g ai/ha): 5

CC(C)c1cccc(C2CNC(=O)C2C(=O)Nc2ccccc2F)c1 (stereo not shown) [Compound 318]
Corn plant response rating (corn; [1]): 0
Corn plant response rating (corn; [2]): 0
Plant response rating, Corn (corn; scale 0 to 100): 10
Plant response rating (scale of 0 to 100), Corn (corn): 60
Galium plant response rating (galium; [1]): 0
Galium plant response rating (galium; [2]): 0
Plant response rating, Galium (galium; scale 0 to 100): 40
Plant response rating (scale of 0 to 100), Galium (galium): 100
Plant response rating, Wheat (wheat; 125 g ai/ha, visual rating on 0 to 100 scale (0 no effect, 100 complete control), approx. 10 days): 20
Plant response rating, Wheat (wheat; 500 g ai/ha, 0 to 100 scale (0 no effect, 100 complete control)): 30
Blackgrass plant response rating (blackgrass; [1]): 0
Blackgrass plant response rating (blackgrass; [2]): 0
Plant response rating, Blackgrass (blackgrass; 125 g ai/ha, scale 0 to 100): 30
Plant response rating (scale of 0 to 100), Blackgrass (blackgrass): 45
Johnsongrass plant response rating (johnsongrass; [1]): 0
Johnsongrass plant response rating (johnsongrass; [2]): 0
Plant response rating, Johnsongrass (johnsongrass; scale 0 to 100): 45
Plant response rating (scale of 0 to 100), Johnsongrass (johnsongrass): 60
Waterhemp plant response rating (waterhemp; [2]): 30
Plant response rating, Waterhemp (waterhemp; scale 0 to 100): 10
Ragweed plant response rating (ragweed; [2]): 0
Plant response rating, Ragweed (ragweed; scale 0 to 100): 0
Oilseed Rape plant response rating (oilseed rape; [1]): 0
Oilseed Rape plant response rating (oilseed rape; [2]): 0
Plant response rating, Oilseed Rape (oilseed rape; scale 0 to 100): 5
Plant response rating (scale of 0 to 100), Oilseed Rape (oilseed rape): 5
Ryegrass, Italian plant response rating (ryegrass, Italian; [2]): 0
Plant response rating, Ryegrass, Italian (ryegrass, Italian; scale 0 to 100): 0
Crabgrass, Large plant response rating (crabgrass, large; [1]): 95
Crabgrass, Large plant response rating (crabgrass, large; [2]): 98
Plant response rating, Crabgrass, Large (crabgrass, large; scale 0 to 100): 98
Plant response rating (scale of 0 to 100), Crabgrass, Large (crabgrass, large): 100
Soybean plant response rating (soybean; [2]): 0
Plant response rating, Soybean (soybean; scale 0 to 100): 0
